Structures can show the parent of a compound that is named as a salt.
Key:
serotonin-uptake = assay: Serotonin-uptake Test (antidepressant activity; M. J. Kuhar et al.); type: biochemical
Description: (§1) As already mentioned earlier, the compounds of formula I and their pharmaceutically acceptable acid addition salts have valuable pharmacodynamic properties. In particular, they have interesting analgesic, anti-depressant and acute inflammation-inhibiting properties. […] In the following Table there are given the results determined in these tests for some representative members of the class of compound defined by general formula I. Moreover, the Table contains data concerning the acute toxicity of these compounds (LD50 after single oral administration to mice).

[1] = Writhing Test on the mouse (analgesic activity); type: in vivo; conditions: po
Description: as §1

[2] = Acute toxicity, LD50 after single oral administration to mice; conditions: mouse, in vivo
Description: as §1

Row | Structure (SMILES) | IC50 (serotonin-uptake) | ED50 [1] | LD50 [2]
1 | CN(C)C[C@@H](c1ccc(Cl)c(Cl)c1)[C@@H]1CCCC[C@@H]1O (relative stereo) [rac-(1S*)-cis-2-/(R*)-3,4-dichloro-α-[(dimethylamino)methyl]benzyl/cyclohexanol hydrochloride] | 21 nM | 9.7 mg/kg | 62.6 to 125 mg/kg
2 | CN(C)C[C@@H](c1ccc(Cl)cc1)[C@@H]1CCCC[C@@H]1O (relative stereo) [rac-(1S*)-cis-2-/(R*)-4-chloro-α-[(dimethylamino)methyl]benzyl/cyclohexanol hydrochloride] | 88 nM | 18 mg/kg | 312 to 625 mg/kg
3 | COc1ccc([C@H](CN(C)C)[C@@H]2CCCC[C@@H]2O)cc1 (relative stereo) [rac-(1S*)-cis-2-/(R*)-4-methoxy-α-[(dimethylamino)methyl]benzyl/cyclohexanol hydrochloride] | 120 nM | 23 mg/kg | 250 to 500 mg/kg
4 | COc1ccc([C@H](CN(C)C)[C@@H]2CCCC[C@@H]2O)cc1OC (relative stereo) [rac-(1S*)-cis-2-/(R*)-α-[(dimethylamino)methyl]-3,4-dimethoxybenzyl/cyclohexanol hydrochloride] | 100 nM | 10 mg/kg | 500 to 1000 mg/kg
5 | CN(C)C[C@@H](c1ccc(O)cc1)[C@@H]1CCCC[C@@H]1O (relative stereo) [rac-(1S*)-cis-2-/(R*)-α-[(dimethylamino)methyl]-4-hydroxybenzyl/cyclohexanol] | 180 nM | 8.4 mg/kg | 500 to 1000 mg/kg
6 | CN(C)C[C@@H](c1ccc(Cl)cc1)[C@@H]1CCCCC1=O (relative stereo) [rac-(2S*)-2-/(R*)-4-chloro-α-[(dimethylamino)methyl]benzyl/cyclohexanone hydrochloride] | 240 nM | 22 mg/kg | 156 to 312 mg/kg
7 | CN(C)C[C@@H](c1ccc(Cl)cc1)[C@@H]1CCCC[C@@H]1O [(+)-(1S)-cis-2-/(R)-4-chloro-α-[(dimethylamino)methyl]benzyl/cyclohexanol hydrochloride] | 110 nM | 14 mg/kg | 125 to 250 mg/kg
8 | CN(C)C[C@H](c1ccc(Cl)cc1)[C@H]1CCCC[C@H]1O [(-)-(1R)-cis-2-/(S)-4-chloro-α-[(dimethylamino)methyl]benzyl/cyclohexanol hydrochloride] | 55 nM | 19 mg/kg | 125 to 250 mg/kg
